# Reference: ChEMBL document CHEMBL1201862, “PubChem BioAssay data set” (2004)
#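 Cultured in 96-well plates, cells were exposed to test compound for 48 hours across five concentrations. At the GI50, growth is halved.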 The source made the active and inactive calls. Cut-off read from the data, not from the text of the source: active = GI50 up to about 1.1 µM and inactive = higher.
# Assays:
# Assay in all cases: NCI anticancer screen, dose series, 48 h
# [1] = test system: KM12
# [2] = test system: IGROV-1
# [3] = test system: TK-10
# [4] = test system: OVCAR-8
# [5] = test system: RXF 393
# [6] = test system: HCC 2998
# [7] = test system: UACC-62
# [8] = test system: MDA-MB-231
# [9] = test system: MDA-MB-435
# [10] = test system: T47D
# [11] = test system: MOLT-4
# [12] = test system: MCF7
# [13] = test system: SF-295
# [14] = test system: EKVX
# [15] = test system: 786-0
# [16] = test system: COLO 205
# [17] = test system: HT-29
# [18] = test system: SF-539
# [19] = test system: OVCAR-5
SMILES,GI50 [1],GI50 [2],GI50 [3],GI50 [4],GI50 [5],GI50 [6],GI50 [7],GI50 [8],GI50 [9],GI50 [10],GI50 [11],GI50 [12],GI50 [13],GI50 [14],GI50 [15],GI50 [16],GI50 [17],GI50 [18],GI50 [19]
CCN(CC)CCn1c2cc3c(cc2c(=O)c2cccnc21)OCCO3,> 10 µM (inactive),> 10 µM (inactive),> 10 µM (inactive),> 10 µM (inactive),> 10 µM (inactive),6.4 µM (inactive),> 10 µM (inactive),9.51 µM (inactive),> 10 µM (inactive),> 10 µM (inactive),3.78 µM (inactive),7.82 µM (inactive),> 10 µM (inactive),> 10 µM (inactive),> 10 µM (inactive),> 10 µM (inactive),> 10 µM (inactive),> 10 µM (inactive),–
CC(=O)OCC1OC(n2c(C)cc(C)c(C#N)c2=S)C(OC(C)=O)C(OC(C)=O)C1OC(C)=O (configuration not stated),> 100 µM (inactive),> 100 µM (inactive),> 100 µM (inactive),> 100 µM (inactive),> 100 µM (inactive),> 100 µM (inactive),> 100 µM (inactive),> 100 µM (inactive),> 100 µM (inactive),> 100 µM (inactive),> 100 µM (inactive),> 100 µM (inactive),> 100 µM (inactive),–,> 100 µM (inactive),> 100 µM (inactive),> 100 µM (inactive),> 100 µM (inactive),> 100 µM (inactive)
Cc1cc2[nH]c3c(C#N)c(-c4ccccc4)c(CN4CCOCC4)c(=O)n3c2cc1C,> 100 µM (inactive),–,> 100 µM (inactive),> 100 µM (inactive),> 100 µM (inactive),> 100 µM (inactive),–,> 100 µM (inactive),> 100 µM (inactive),> 100 µM (inactive),–,> 100 µM (inactive),> 100 µM (inactive),> 100 µM (inactive),> 100 µM (inactive),> 100 µM (inactive),–,> 100 µM (inactive),> 100 µM (inactive)
O=C(N(C1=CCCC1)N(c1ccccc1)c1ccccc1)C(F)(F)F,18.1 µM (inactive),–,39.9 µM (inactive),29.9 µM (inactive),17 µM (inactive),18.2 µM (inactive),25.8 µM (inactive),16.9 µM (inactive),21.1 µM (inactive),17 µM (inactive),14 µM (inactive),19.7 µM (inactive),22.6 µM (inactive),17.5 µM (inactive),27.7 µM (inactive),18.6 µM (inactive),17.3 µM (inactive),20.2 µM (inactive),27 µM (inactive)
CC1C2CC(CC23OCC(CCl)O3)C1(C)C (configuration not stated),> 100 µM (inactive),> 100 µM (inactive),> 100 µM (inactive),> 100 µM (inactive),> 100 µM (inactive),> 100 µM (inactive),> 100 µM (inactive),> 100 µM (inactive),> 100 µM (inactive),> 100 µM (inactive),> 100 µM (inactive),> 100 µM (inactive),> 100 µM (inactive),> 100 µM (inactive),> 100 µM (inactive),> 100 µM (inactive),> 100 µM (inactive),> 100 µM (inactive),–
COc1ccc(Nc2c[nH]c(=O)[nH]c2=O)cc1,> 100 µM (inactive),> 100 µM (inactive),> 100 µM (inactive),> 100 µM (inactive),> 100 µM (inactive),> 100 µM (inactive),> 100 µM (inactive),> 100 µM (inactive),> 100 µM (inactive),> 100 µM (inactive),> 100 µM (inactive),> 100 µM (inactive),> 100 µM (inactive),> 100 µM (inactive),> 100 µM (inactive),> 100 µM (inactive),> 100 µM (inactive),> 100 µM (inactive),–
CCN(CC)CCC(=O)OC1C(C)=CC(C)C(=O)CC(C(C)CC2CCC(O)C(OC)C2)OC(=O)C2CCCCN2C(=O)C(=O)[C@@]2(O)OC(CCC2C)CC(OC)\C(C)=C/C=C/C=C/C(C)CC(C)C(=O)C1OC (some centres not stated),7.98 µM (inactive),< 0.01 µM (active),5.69 µM (inactive),–,< 0.01 µM (active),1.87 µM (inactive),–,12.8 µM (inactive),4.57 µM (inactive),< 0.01 µM (active),–,< 0.01 µM (active),< 0.01 µM (active),< 0.01 µM (active),7.91 µM (inactive),12.1 µM (inactive),1.91 µM (inactive),< 0.01 µM (active),10.3 µM (inactive)
O=C1/C(=C/c2ccccc2O)N=C(c2ccccc2)N1C1Nc2cc3c(cc2S1)NC(N1C(=O)/C(=C/c2ccccc2O)N=C1c1ccccc1)S3 (configuration not stated),41.3 µM (inactive),14.2 µM (inactive),25.4 µM (inactive),30.7 µM (inactive),23.7 µM (inactive),33.6 µM (inactive),–,32.7 µM (inactive),14.8 µM (inactive),8.05 µM (inactive),35.5 µM (inactive),2.13 µM (inactive),42.1 µM (inactive),46.7 µM (inactive),25.4 µM (inactive),–,42.3 µM (inactive),36.1 µM (inactive),> 100 µM (inactive)
CCOC(CN(C)C(=O)Nc1cccc2ccccc12)OCC,> 10 µM (inactive),> 10 µM (inactive),> 10 µM (inactive),> 10 µM (inactive),> 10 µM (inactive),> 10 µM (inactive),> 10 µM (inactive),> 10 µM (inactive),> 10 µM (inactive),> 10 µM (inactive),> 10 µM (inactive),> 10 µM (inactive),> 10 µM (inactive),> 10 µM (inactive),> 10 µM (inactive),> 10 µM (inactive),> 10 µM (inactive),> 10 µM (inactive),–
CC(=O)C1=C(c2ccccc2)N(C2OC(CO)C(O)C(O)C2O)C(S)=C(C#N)C1c1ccc(Cl)cc1 (configuration not stated),23.2 µM (inactive),39.7 µM (inactive),52.7 µM (inactive),33.5 µM (inactive),28.6 µM (inactive),17.7 µM (inactive),16.4 µM (inactive),28.1 µM (inactive),23.6 µM (inactive),10.3 µM (inactive),15.8 µM (inactive),20.1 µM (inactive),35.9 µM (inactive),–,27 µM (inactive),24.7 µM (inactive),31 µM (inactive),18.2 µM (inactive),62.2 µM (inactive)
COCOc1c(C(OCOC)c2cnc(Sc3ccccc3)n2C)ccc(OC)c1OC (configuration not stated),> 100 µM (inactive),> 100 µM (inactive),> 100 µM (inactive),> 100 µM (inactive),83.4 µM (inactive),> 100 µM (inactive),> 100 µM (inactive),> 100 µM (inactive),> 100 µM (inactive),82.2 µM (inactive),87.1 µM (inactive),> 100 µM (inactive),> 100 µM (inactive),> 100 µM (inactive),> 100 µM (inactive),–,> 100 µM (inactive),> 100 µM (inactive),> 100 µM (inactive)
